Source: US12139520B2 (priority 2020, dated 2024)
Bridge positions count the residues as written; N and C are the ends. Square brackets hold non-standard residues; d marks the D form. Peptide text beside a SMILES is read from it. Hyp = O=C(O)[C@@H]1C[C@@H](O)CN1; Cit = NC(=O)NCCC[C@H](N)C(=O)O

What was measured:
hAMY3 receptor = molecular target: T1, hAMY3 receptor (Homo sapiens, UniProt O60896+P30988); assay: cAMP assay for in vitro receptor activation, hAMY3-R; format: cell-based; conditions: cAMP assay, hAMY3 receptor; read-out: hAMY3R EC50
T1 sequence (P30988 25-474): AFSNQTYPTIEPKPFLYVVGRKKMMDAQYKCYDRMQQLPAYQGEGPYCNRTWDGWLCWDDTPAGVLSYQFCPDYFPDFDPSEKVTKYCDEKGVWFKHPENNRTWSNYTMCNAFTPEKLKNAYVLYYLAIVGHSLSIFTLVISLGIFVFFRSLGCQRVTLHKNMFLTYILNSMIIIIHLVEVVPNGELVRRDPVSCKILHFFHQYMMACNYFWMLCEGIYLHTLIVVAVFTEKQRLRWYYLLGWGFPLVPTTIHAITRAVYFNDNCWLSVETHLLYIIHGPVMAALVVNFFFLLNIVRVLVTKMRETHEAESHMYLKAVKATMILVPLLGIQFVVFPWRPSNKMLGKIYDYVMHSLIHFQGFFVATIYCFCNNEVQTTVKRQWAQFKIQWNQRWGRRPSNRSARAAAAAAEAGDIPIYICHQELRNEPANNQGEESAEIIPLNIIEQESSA
T1 sequence (O60896 24-148 partner): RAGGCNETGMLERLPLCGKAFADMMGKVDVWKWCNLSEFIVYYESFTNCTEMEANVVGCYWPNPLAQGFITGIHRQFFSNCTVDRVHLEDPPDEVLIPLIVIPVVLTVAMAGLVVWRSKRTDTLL
Method in brief: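 Stable hAMY3 cells; DPBS + 0.05% casein + 0.5 mM IBMX; graded compound doses, 30 min, RT; cAMP via HTRF Gs kit, TR-FRET read at 1 h.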

[1] = Physical stability of peptide analogues (Thioflavin T fibrillation); format: physicochemical; conditions: maximum ThT signal normalized between hAMY maximum and buffer background; 40° C., shaking, four days; pH 7 per table title
Method in brief: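 1 h in 50 mM NaOAc pH 4 / 50 mM NaPi pH 7; + ThT 4 μM final; 40 °C, 700 rpm linear shake 5 min pre-read; ex 450, em 480 nm q10 min × 4 d; LOESS smoothing; max signal normalised to hAMY max vs buffer blank.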

EC50 (hAMY3 receptor) [nM] | Max ThT signal (%) [1] [%] | SMILES
0.085 | 15.600 | CC[C@H](C)[C@H](NC(=O)[C@H](CCC(N)=O)NC(=O)[C@H](Cc1c[nH]cn1)NC(=O)[C@H](C)NC(=O)[C@H](CC(C)C)NC(=O)[C@H](CCCNC(=N)N)NC(=O)[C@H](CCC(N)=O)NC(=O)[C@@H](NC(=O)[C@@H](NC(=O)[C@@H]1CSSC[C@H](NC(=O)CN)C(=O)N[C@@H](CCCNC(=N)N)C(=O)N[C@@H](Cc2ccccc2)C(=O)NCC(=O)N[C@@H]([C@@H](C)O)C(=O)N1)[C@@H](C)O)C(C)C)C(=O)N[C@@H](Cc1ccc(O)cc1)C(=O)N[C@@H](CCC(N)=O)C(=O)N[C@@H](Cc1ccccc1)C(=O)N[C@H](C(=O)N[C@@H](CC(=O)O)C(=O)N[C@@H](CCCCN)C(=O)N[C@@H](CC(=O)O)C(=O)N[C@@H](CCCCN)C(=O)N[C@@H](CC(=O)O)C(=O)N[C@@H](CC(N)=O)C(=O)N[C@H](C(=O)N[C@@H](C)C(=O)N1CCC[C@H]1C(=O)N[C@@H](CCCNC(=N)N)C(=O)N[C@@H](CO)C(=O)N[C@@H](CC(N)=O)C(=O)N[C@H](C(=O)N[C@@H](CO)C(=O)N1CCC[C@H]1C(=O)N[C@@H](CCC(N)=O)C(=O)NCC(=O)N[C@@H](Cc1ccc(O)cc1)C(N)=O)[C@@H](C)CC)C(C)C)[C@@H](C)O [compound 182] (H-GCRFGTCTVQRLAHQIYQFTDKDKDNVAPRSNISPQGY-NH2; disulfide 2-7; N-terminus assumed)
0.003 | 25.450 | CC[C@H](C)[C@H](NC(=O)[C@H](CCC(N)=O)NC(=O)[C@H](Cc1c[nH]cn1)NC(=O)[C@H](C)NC(=O)[C@H](CC(C)C)NC(=O)[C@H](CCCNC(N)=O)NC(=O)[C@H](CCC(N)=O)NC(=O)[C@@H](NC(=O)[C@@H](NC(=O)[C@@H]1CSSC[C@H](NC(=O)CN)C(=O)N[C@@H](CCCNC(=N)N)C(=O)N[C@@H](Cc2ccccc2)C(=O)NCC(=O)N[C@@H]([C@@H](C)O)C(=O)N1)[C@@H](C)O)C(C)C)C(=O)N[C@@H](Cc1ccc(O)cc1)C(=O)N[C@@H](CCC(N)=O)C(=O)N[C@@H](Cc1ccccc1)C(=O)N[C@H](C(=O)N[C@@H](CC(=O)O)C(=O)N[C@@H](CCCCN)C(=O)N[C@@H](CC(=O)O)C(=O)N[C@@H](CCCCN)C(=O)N[C@@H](CC(=O)O)C(=O)N[C@@H](CC(N)=O)C(=O)N[C@H](C(=O)N[C@@H](C)C(=O)N1CCC[C@H]1C(=O)N[C@@H](CCCNC(=N)N)C(=O)N[C@H](C(=O)N[C@@H](CC(N)=O)C(=O)N[C@H](C(=O)NCC(=O)N1CCC[C@H]1C(=O)N[C@@H](CC(N)=O)C(=O)NCC(=O)N1C[C@H](O)C[C@H]1C(N)=O)C(C)C)[C@@H](C)O)C(C)C)[C@@H](C)O [compound 270] (H-GCRFGTCTVQ[Cit]LAHQIYQFTDKDKDNVAPRTNVGPNG[Hyp]-NH2; disulfide 2-7; N-terminus assumed)
0.013 | 13.450 | CC(C)C[C@H](NC(=O)[C@H](CCCNC(N)=O)NC(=O)[C@H](CCC(N)=O)NC(=O)[C@@H](NC(=O)[C@@H](NC(=O)[C@@H]1CSSC[C@H](NC(=O)CN)C(=O)N[C@@H](CCCNC(=N)N)C(=O)N[C@@H](Cc2ccccc2)C(=O)NCC(=O)N[C@@H]([C@@H](C)O)C(=O)N1)[C@@H](C)O)C(C)C)C(=O)N[C@@H](C)C(=O)N[C@@H](Cc1c[nH]cn1)C(=O)N[C@@H](Cc1ccccc1)C(=O)N[C@@H](CC(C)C)C(=O)N[C@@H](Cc1ccc(O)cc1)C(=O)N[C@@H](CCC(N)=O)C(=O)N[C@@H](Cc1ccccc1)C(=O)N[C@H](C(=O)N[C@@H](CC(=O)O)C(=O)N[C@@H](CCCCN)C(=O)N[C@@H](CC(=O)O)C(=O)N[C@@H](CCCCN)C(=O)N[C@@H](CC(=O)O)C(=O)N[C@@H](CC(N)=O)C(=O)N[C@H](C(=O)N[C@@H](C)C(=O)N1CCC[C@H]1C(=O)N[C@@H](CCCNC(=N)N)C(=O)N[C@H](C(=O)N[C@@H](CCCCN)C(=O)N[C@H](C(=O)NCC(=O)N[C@@H](CO)C(=O)N[C@@H](CC(N)=O)C(=O)NCC(=O)N[C@@H](Cc1ccc(O)cc1)C(N)=O)C(C)C)[C@@H](C)O)C(C)C)[C@@H](C)O [compound 279] (H-GCRFGTCTVQ[Cit]LAHFLYQFTDKDKDNVAPRTKVGSNGY-NH2; disulfide 2-7; N-terminus assumed)
0.011 | 3.000 | CC[C@H](C)[C@H](NC(=O)[C@H](CCC(N)=O)NC(=O)[C@H](Cc1c[nH]cn1)NC(=O)[C@H](C)NC(=O)[C@H](CC(C)C)NC(=O)[C@H](CCCNC(=N)N)NC(=O)[C@H](CCC(N)=O)NC(=O)[C@@H](NC(=O)[C@@H](NC(=O)[C@@H]1CSSC[C@H](NC(=O)CN)C(=O)N[C@@H](CCCNC(=N)N)C(=O)N[C@@H](Cc2ccccc2)C(=O)NCC(=O)N[C@@H]([C@@H](C)O)C(=O)N1)[C@@H](C)O)C(C)C)C(=O)N[C@@H](Cc1ccc(O)cc1)C(=O)N[C@@H](CCC(N)=O)C(=O)N[C@@H](Cc1ccccc1)C(=O)N[C@H](C(=O)N[C@@H](CC(=O)O)C(=O)N[C@@H](CCCCN)C(=O)N[C@@H](CC(=O)O)C(=O)N[C@@H](CCCCN)C(=O)N[C@@H](CC(=O)O)C(=O)N[C@@H](CC(N)=O)C(=O)N[C@H](C(=O)N[C@@H](C)C(=O)N1CCC[C@H]1C(=O)N[C@@H](CCCNC(=N)N)C(=O)N[C@H](C(=O)N[C@@H](CCCCN)C(=O)N[C@H](C(=O)NCC(=O)N1CCC[C@H]1C(=O)N[C@@H](CCC(N)=O)C(=O)NCC(=O)N1C[C@H](O)C[C@H]1C(N)=O)C(C)C)[C@@H](C)O)C(C)C)[C@@H](C)O [compound 45] (H-GCRFGTCTVQRLAHQIYQFTDKDKDNVAPRTKVGPQG[Hyp]-NH2; disulfide 2-7; N-terminus assumed)
0.051 | 14.300 | CC[C@H](C)[C@H](NC(=O)[C@H](CCCCN)NC(=O)[C@@H](NC(=O)[C@H](CCCNC(=N)N)NC(=O)[C@@H]1CCCN1C(=O)[C@H](C)NC(=O)[C@@H](NC(=O)[C@H](CC(N)=O)NC(=O)[C@H](CC(=O)O)NC(=O)[C@H](CCCCN)NC(=O)[C@H](CC(=O)O)NC(=O)[C@H](CCCCN)NC(=O)[C@H](CC(=O)O)NC(=O)[C@@H](NC(=O)[C@H](Cc1ccccc1)NC(=O)[C@H](CCC(N)=O)NC(=O)[C@H](Cc1ccc(O)cc1)NC(=O)[C@@H](NC(=O)[C@H](CCC(N)=O)NC(=O)[C@H](Cc1c[nH]cn1)NC(=O)[C@H](C)NC(=O)[C@H](CC(C)C)NC(=O)[C@H](CCCNC(=N)N)NC(=O)[C@H](CCC(N)=O)NC(=O)[C@@H](NC(=O)[C@@H](NC(=O)[C@@H]1CSSC[C@H](NC(=O)CN)C(=O)N[C@@H](CCCNC(=N)N)C(=O)N[C@@H]([C@@H](C)O)C(=O)NCC(=O)N[C@@H]([C@@H](C)O)C(=O)N1)[C@@H](C)O)C(C)C)[C@@H](C)CC)[C@@H](C)O)C(C)C)[C@@H](C)O)C(=O)NCC(=O)N1CCC[C@H]1C(=O)N[C@@H](CCC(N)=O)C(=O)NCC(=O)N1C[C@H](O)C[C@H]1C(N)=O [compound 161] (H-GCRTGTCTVQRLAHQIYQFTDKDKDNVAPRTKIGPQG[Hyp]-NH2; disulfide 2-7; N-terminus assumed)
0.068 | 3.700 | CC[C@H](C)[C@H](NC(=O)[C@H](CCCCN)NC(=O)[C@@H](NC(=O)[C@H](CCCNC(=N)N)NC(=O)[C@@H]1CCCN1C(=O)[C@H](C)NC(=O)[C@@H](NC(=O)[C@H](CC(N)=O)NC(=O)[C@H](CC(=O)O)NC(=O)[C@H](CCCCN)NC(=O)[C@H](CC(=O)O)NC(=O)[C@H](CCCCN)NC(=O)[C@H](CC(=O)O)NC(=O)[C@@H](NC(=O)[C@H](Cc1ccccc1)NC(=O)[C@H](CCC(N)=O)NC(=O)[C@H](Cc1ccc(O)cc1)NC(=O)[C@@H](NC(=O)[C@H](CCC(N)=O)NC(=O)[C@H](Cc1c[nH]cn1)NC(=O)[C@H](C)NC(=O)[C@H](CC(C)C)NC(=O)[C@H](CCCNC(=N)N)NC(=O)[C@H](CCC(N)=O)NC(=O)[C@@H](NC(=O)[C@@H](NC(=O)[C@@H]1CSSC[C@H](NC(=O)CN)C(=O)N[C@@H](CCCNC(=N)N)C(=O)N[C@@H](Cc2ccccc2)C(=O)NCC(=O)N[C@@H]([C@@H](C)O)C(=O)N1)[C@@H](C)O)C(C)C)[C@@H](C)CC)[C@@H](C)O)C(C)C)[C@@H](C)O)C(=O)NCC(=O)N1CCC[C@H]1C(=O)N[C@@H](CCC(N)=O)C(=O)NCC(=O)N[C@@H](Cc1ccc(O)cc1)C(N)=O [compound 391] (H-GCRFGTCTVQRLAHQIYQFTDKDKDNVAPRTKIGPQGY-NH2; disulfide 2-7; N-terminus assumed)
